According to PMC10600239, “Selective MCL-1 inhibitor ABBV-467 is efficacious in tumor models but is associated with cardiac troponin increases in patients” (Communications Medicine, 2023):
“And” between values parts separate entries of the source, which are not always exact repeats. Equal entries are not always repeated.

System: AMO-1 xenografts
Assay: AMO-1 xenograft efficacy (tumor volume, body weight); on Mortality Observation Day 34: key: EUTV: Euthanized: tumor volume; on Mortality Observation Day 36: key: EUTV: Euthanized: tumor volume; on Mortality Observation Day 68, individual animal: key: EUTV: Euthanized: tumor volume
Format: in vivo, mouse
Procedure: All animal studies were conducted in accordance with the guidelines approved by the Institutional Animal Care and Use Committees of AbbVie. The research protocol was approved by In Vivo Pharmacology at AbbVie prior to study initiation but was not publicly registered or disclosed. Female C.B-17 SCID-beige mice (AMO-1, OPM-2, NCI-H929, and OCI-AML2 xenografts) and female NSG mice (MV4-11-Red.Fluc systemic) were purchased from Charles River Laboratories (Wilmington, MA). Animals were housed in a light cycle-controlled room with HEPA filtration at 22 °C. Animals had nesting and climbing cage topper as the primary environmental enrichment. Animals were inoculated subcutaneously in the right flank with 5 × 10^6 (AMO-1, OPM-2, NCI-H929, and OCI-AML2) or intravenous (IV) with 5 × 10^6 (MV4-11-Red.Fluc). The inoculation volume (0.2 mL) comprised a 50:50 mixture of cells in growth media and Matrigel (BD Biosciences) for subcutaneous injections and 100% phosphate-buffered saline for IV administration. All cell lines used in this publication were authenticated using IDEXX for STR profiling as well as their IMPACT and human IMPACT panels for pathogen screening. Electronic calipers were used to measure the length and width of each tumor 2 to 3 times per week. Tumor volume was estimated by applying the following equation: volume = length × width^2/2. All groups remained blinded during measurements and dosing; only veterinary staff were aware of group identity. When tumors reached approximately 200 mm^3, mice were randomized by match and distributed into treatment and control groups. All xenograft trials were conducted using 5 to 10 mice per group, and all mice were ear tagged and monitored individually throughout the studies. […] Tumor burden in the systemic MV4-11-Red.Fluc experiment was measured using an IVIS® spectrum from PerkinElmer by taking the total photon flux of the entire dorsal side of an individual mouse. […] A background control mouse that was tumor naive but received D-Luciferin was placed in the upper left corner of each image. The total flux from this animal was subtracted from the total flux of each animal present in the image.
For in vivo studies, maximal tumor growth inhibition (TGI) was calculated as the greatest treatment response using the following equation: Maximal TGI = (1 − mean tumor volume of the treated group/mean tumor volume of the vehicle control group) × 100. The tumor growth delay (TGD) percentage was determined as the percentage increase of the median time period for the treatment group to reach an arbitrary tumor volume of 1000 mm^3 relative to the vehicle control group. […] A power analysis was conducted using historical data to determine the number of animals required to yield significance of 0.05 at a 30% difference. […] Data from experiments in vivo were analyzed using the student’s t-test for TGI values and the Mann–Whitney U test for TGD using Excel and GraphPad Prism. Fisher’s exact test was used to probe significance of differences in response frequency.

[1] = 25 mg/kg Q7Dx2 IV, Day 53, SCID-beige female mice
[2] = 25 mg/kg Q7Dx2 IV, Day 60, SCID-beige female mice
[3] = 25 mg/kg Q7Dx2 IV, SCID-beige female mice, Day 21
[4] = 25 mg/kg Q7Dx2 IV, SCID-beige female mice, Day 24
[5] = 25 mg/kg Q7Dx2 IV, SCID-beige female mice, Day 26
[6] = 25 mg/kg Q7Dx2 IV, SCID-beige female mice, Day 28
[7] = 25 mg/kg Q7Dx2 IV, SCID-beige female mice, Day 34, surviving animals
[8] = 25 mg/kg Q7Dx2 IV, SCID-beige female mice, Day 43
[9] = 25 mg/kg Q7Dx2 IV, SCID-beige female mice, Day 50
[10] = 25 mg/kg Q7Dx2 IV, SCID-beige female mice, Day 55, remaining animals
[11] = 25 mg/kg Q7Dx2 IV, SCID-beige female mice, Day 62
[12] = 25 mg/kg Q7Dx2 IV, SCID-beige female mice, Day 64
[13] = 25 mg/kg Q7Dx2 IV, SCID-beige female mice, Day 68
[14] = 25 mg/kg Q7Dx2 IV, SCID-beige female mice, Day 68, surviving animals
[15] = 25 mg/kg Q7Dx2 IV, SCID-beige mice, Day 13 (measure date 10/25/2017, dosing begin 10/26/2017)

## Cc1c(Cl)c2c(Cl)c(C)c1-c1c(-c3ccc(F)cc3)sc3ncnc(c13)O[C@@H](C(=O)O)Cc1cc(ccc1OCc1ccnc(-c3ccc(OC[C@H]4COCCO4)cc3)n1)OC[C@@H](CN1CCN(C)CC1)O2 [Compound A-1747745.0]
6.25 mg/kg QDx1 IV, Day 34, group mean
  Xenograft AMO-1 (DSMZ) (mm³) Day 34 Mean: 1592.98 mm³
6.25 mg/kg QDx1 IV, Day 34, group median
  Xenograft AMO-1 (DSMZ) (mm³) Day 34 Median: 1465.20 mm³
6.25 mg/kg QDx1 IV, Day 34, per animal
  Mortality Observation Day 34: EUTV
6.25 mg/kg QDx1 IV, Day 36, SCID-beige female mice, tumor volume per animal (remaining animals)
  Xenograft AMO-1 (DSMZ) (mm³) Day 36 (individual animals): 1617 mm³ and 1642 mm³ and 1750 mm³ and 2010 mm³
6.25 mg/kg QDx1 IV, Day 36, group mean of remaining animals
  Xenograft AMO-1 (DSMZ) (mm³) Day 36, Mean: 1754.60 mm³
6.25 mg/kg QDx1 IV, Day 36, group median of remaining animals
  Xenograft AMO-1 (DSMZ) (mm³) Day 36, Median: 1695.89 mm³
6.25 mg/kg QDx1 IV, Day 36, per animal
  Mortality Observation Day 36: EUTV
25 mg/kg Q7Dx2 IV, AMO-1 xenograft, SCID-beige female mice, individual animals
  Mortality Observation Day 19: MORB
25 mg/kg Q7Dx2 IV, Day 13
  % T/C (mean): 102.38%
  % T/C (median): 100.76%
25 mg/kg Q7Dx2 IV, Day 19
  % T/C (mean): 6.47%
  % T/C (median): 6.98%
25 mg/kg Q7Dx2 IV, Day 21
  % T/C (mean): 4.61%
  % T/C (median): 4.91%
25 mg/kg Q7Dx2 IV, Day 24
  % T/C (mean): 1.88%
  % T/C (median): 1.98%
25 mg/kg Q7Dx2 IV, Day 26
  % T/C (mean): 1.29%
  % T/C (median): 1.46%
25 mg/kg Q7Dx2 IV, Day 28
  % T/C (mean): 0.52%
  % T/C (median): 0.52%
[1]
  Xenograft AMO-1 (DSMZ) (mm³) Day 53 (individual animals): 15 mm³
  Xenograft AMO-1 (DSMZ) (mm³) Day 53 Mean: 15.19 mm³
  Xenograft AMO-1 (DSMZ) (mm³) Day 53 Median: 15.19 mm³
[2]
  Xenograft AMO-1 (DSMZ) (mm³) Day 60 (individual animals): 155 mm³ and 71 mm³
  Xenograft AMO-1 (DSMZ) (mm³) Day 60, Mean: 112.89 mm³
  Xenograft AMO-1 (DSMZ) (mm³) Day 60, Median: 112.89 mm³
25 mg/kg Q7Dx2 IV, SCID-beige female mice, Day 19, group mean tumor volume
  Xenograft AMO-1 (DSMZ) Day 19 Mean: 25.56 mm³
25 mg/kg Q7Dx2 IV, SCID-beige female mice, Day 19, group median tumor volume
  Xenograft AMO-1 (DSMZ) Day 19 Median: 25.56 mm³
25 mg/kg Q7Dx2 IV, SCID-beige female mice, Day 19, individual tumor volumes
  Xenograft AMO-1 (DSMZ) (mm³) Day 19, individual animals: 18 mm³ and 33 mm³ and MORB
[3]
  Mortality Observation Day 21, individual animals: STOX (2×) and MORB (2×)
  Xenograft AMO-1 (DSMZ) Day 21, Mean: 29.76 mm³
  Xenograft AMO-1 (DSMZ) Day 21, Median: 29.76 mm³
  Xenograft AMO-1 (DSMZ) tumor volume Day 21, individual animals: 19 mm³ and 40 mm³
[4]
  Xenograft AMO-1 (DSMZ) (mm³) Day 24, individual animals: 17 mm³ and 19 mm³
  Xenograft AMO-1 (DSMZ) tumor volume Day 24, Mean: 17.90 mm³
  Xenograft AMO-1 (DSMZ) tumor volume Day 24, Median: 17.90 mm³
[5]
  Xenograft AMO-1 (DSMZ) tumor volume Day 26, Mean: 17.97 mm³
  Xenograft AMO-1 (DSMZ) tumor volume Day 26, Median: 17.97 mm³
  Xenograft AMO-1 (DSMZ) tumor volume Day 26, individual animals: 18 mm³
[6]
  Xenograft AMO-1 (DSMZ) (mm³) Day 28, individual animals: 11 mm³
  Xenograft AMO-1 (DSMZ) Day 28 Mean: 11.33 mm³
  Xenograft AMO-1 (DSMZ) Day 28 Median: 11.33 mm³
25 mg/kg Q7Dx2 IV, SCID-beige female mice, Day 34
  Xenograft AMO-1 (DSMZ) (mm³) Day 34, individual animal tumor volume: 21 mm³ and 19 mm³
[7]
  Xenograft AMO-1 (DSMZ) (mm³) Day 34 Mean: 20.16 mm³
  Xenograft AMO-1 (DSMZ) (mm³) Day 34 Median: 20.16 mm³
[8]
  Xenograft AMO-1 (DSMZ) (mm³) Day 43, Mean: 15.04 mm³
  Xenograft AMO-1 (DSMZ) (mm³) Day 43, Median: 15.04 mm³
  Xenograft AMO-1 (DSMZ) (mm³) Day 43, individual animal tumor volume: 15 mm³
[9]
  Xenograft AMO-1 (DSMZ) tumor volume Day 50, Mean: 15.94 mm³
  Xenograft AMO-1 (DSMZ) tumor volume Day 50, Median: 15.94 mm³
  Xenograft AMO-1 (DSMZ) tumor volume Day 50, individual animals: 15 mm³ and 17 mm³
25 mg/kg Q7Dx2 IV, SCID-beige female mice, Day 55
  Xenograft AMO-1 (DSMZ) tumor volume Day 55, individual animals: 13 mm³ and 9 mm³
[10]
  Xenograft AMO-1 (DSMZ) tumor volume Day 55, Mean: 10.76 mm³
  Xenograft AMO-1 (DSMZ) tumor volume Day 55, Median: 10.76 mm³
[11]
  Xenograft AMO-1 (DSMZ) (mm³) Day 62 (individual animals): 198 mm³ and 12 mm³
  Xenograft AMO-1 (DSMZ) (mm³) Day 62, Mean: 104.96 mm³
  Xenograft AMO-1 (DSMZ) (mm³) Day 62, Median: 104.96 mm³
[12]
  Xenograft AMO-1 (DSMZ) (mm³) Day 64 (individual animals): 249 mm³ and 21 mm³
  Xenograft AMO-1 (DSMZ) (mm³) Day 64, Mean: 134.75 mm³
  Xenograft AMO-1 (DSMZ) (mm³) Day 64, Median: 134.75 mm³
[13]
  Mortality Observation Day 68, individual animal: EUTV
  Xenograft AMO-1 (DSMZ) (mm³) Day 68, individual animal tumor volume: 1794 mm³ and 24 mm³
[14]
  Xenograft AMO-1 (DSMZ) (mm³) Day 68, Mean: 908.91 mm³
  Xenograft AMO-1 (DSMZ) (mm³) Day 68, Median: 908.91 mm³
[15]
  Xenograft AMO-1 (DSMZ) tumor volume Day 13, Mean: 225.47 mm³
  Xenograft AMO-1 (DSMZ) tumor volume Day 13, Median: 225.47 mm³
  Xenograft AMO-1 (DSMZ) tumor volume Day 13, individual animals: 233 mm³ and 218 mm³
25 mg/kg Q7Dx2 IV, SCID-beige mice, Day 40, group mean of remaining animals
  Xenograft AMO-1 (DSMZ) (mm³) Day 40, Mean: 7.70 mm³
25 mg/kg Q7Dx2 IV, SCID-beige mice, Day 40, group median of remaining animals
  Xenograft AMO-1 (DSMZ) (mm³) Day 40, Median: 7.70 mm³
25 mg/kg Q7Dx2 IV, SCID-beige mice, Day 40, tumor volume of single animals
  Xenograft AMO-1 (DSMZ) (mm³) Day 40, individual animal: 8 mm³
25 mg/kg Q7Dx2 IV, SCID-beige mice, Day 57, group mean of remaining animals
  Xenograft AMO-1 (DSMZ) Day 57, Mean: 13.23 mm³
25 mg/kg Q7Dx2 IV, SCID-beige mice, Day 57, group median of remaining animals
  Xenograft AMO-1 (DSMZ) Day 57, Median: 13.23 mm³
25 mg/kg Q7Dx2 IV, group mean of remaining animals, SCID-beige mice, Day 36
  Xenograft AMO-1 (DSMZ) (mm³) Day 36, Mean: 10.51 mm³
25 mg/kg Q7Dx2 IV, group mean tumor volume, Day 32
  Xenograft AMO-1 (DSMZ) (mm³) Day 32 Mean: 48.75 mm³
25 mg/kg Q7Dx2 IV, group median of remaining animals, SCID-beige mice, Day 36
  Xenograft AMO-1 (DSMZ) (mm³) Day 36, Median: 10.51 mm³
25 mg/kg Q7Dx2 IV, group median tumor volume, Day 32
  Xenograft AMO-1 (DSMZ) (mm³) Day 32 Median: 48.75 mm³
25 mg/kg Q7Dx2 IV, individual animal tumor volume, Day 32
  Xenograft AMO-1 (DSMZ) (mm³) Day 32: 94 mm³ and 4 mm³
25 mg/kg Q7Dx2 IV, individual animal tumor volume, SCID-beige mice, Day 36
  Xenograft AMO-1 (DSMZ) (mm³) Day 36: 11 mm³
